Measured values reported in patent US7470442B2, “Confectionary compositions with magnolia bark extract” (GIC Innovations Company, priority 2005, dated 2008).
Converted amounts (≈) assume the structure as drawn.

How the values were obtained:
Type in all cases: cell-based
incubated saliva = test: MIC of surface active agents and emulsifiers on incubated saliva, two-fold serial dilution; settings: for MIC (ppm) / MIC: 24 hours at 37° C.; for germ-kill efficacy in words: summary of Table 9
Experimental: (§1) To evaluate the germ-kill efficacy and synergist effect when two or more germ-kill actives are combined, testing was performed to determine the ratio of MBE to surface active agent. The germ-kill active and/or surface active agent were dissolved in ethanol or sterile water to give an initial concentration 0.1% to 1%. The solution was diluted with a nutrient broth to give an initial concentration of 0.05% to 0.5%, which was then serially diluted two-fold so that each subsequent dilution contained 50% of the compound concentration of the previous dilution while maintaining a constant level of nutrients for each dilution. These dilutions were inoculated with representative oral microorganisms, or incubated saliva, and incubated for 24 hours at 37° C. For each surface active agent, the lowest dilution that was not turbid was registered as the MIC. The MBC was determined by transferring 10 microliter of liquid from non-turbid tubes to fresh growth media and incubated for 48 hours.

Porphyromonas gingivalis [1] = test: Minimum-Bactericidal-Concentrations (MBC), plating on blood agar; settings: kills at least 99.9% of initial inoculum
Experimental: To evaluate the effectiveness of Magnolia Bark Extract, in vitro tests were conducted with three subgingival plaque bacteria associated with oral malodor. The Minimum-Inhibitory-Concentrations (MIC) study protocol is as follows. Chlorhexidine was used as a positive control and sterile water was used as a negative control. Menthol and Tween 80 was used as a solvent for Magnolia Bark Extract. Tween 80 is the common name for Polysorbate 80. Ninety-six-well microtiter plates were used for this study. Each well contained 5×10^5 colony forming units/ml of bacteria, serially diluted agents and bacterial growth medium. All bacterial cultures were incubated at 37° C. and stationary. Bacterial growth was estimated spectrophotometrically at 660 nm, after 48 hours. […] The Minimum-Bactericidal-Concentrations (MBC) were determined using the 96-well microtiter plate serial dilutions as described above for MIC studies. Serial dilutions of cultures in wells showing no visible growth were performed and 10 microliters of culture were plated in triplicate on blood agar plates. Viable colonies were scored after incubation of the plates for 48 hours at 37° C. For each test bacterium, the number of colony forming units/ml (CFU/ml) was determined in the initial inoculum. The MBC was defined as the lowest concentration of a test compound that killed at least 99.9% of the cells present in the initial inoculum.

S. mutans biofilm [2] = test: MIC for formation of S. mutans biofilm in 96-well plates; settings: BHI with 0.5% sucrose, 48 h, attached biofilm OD 660 nm
Experimental: (§2) Further to the results described above, the effect of Magnolia Bark Extract on biofilm formation and removal was compared with different herbal and natural ingredients. Comparative testing was performed using green tea extract, Oolong tea extract, Licorice, and Magnolia Bark Extract. The comparative testing included determining the solubility in water, ethanol, water:ethanol mixtures and other solvents (for example, Tween in water), MIC for growth of S. mutans, MIC for formation of S. mutans biofilm in 96-well plates, and the effect on detachment of S. mutans biofilm. To further evaluate the effect on S. mutans biofilm formation, 96-well microtiter plates were used. Each well contained S. mutans (5×10^6 CFU/ml), and was serially diluted with test compounds and growth medium (brain heart infusion broth (BHI) with 0.5% sucrose). The controls included inoculated growth medium without test compounds. All plates were incubated at 37° C. under aerobic condition with growth estimated spectrophotometrically (660 nm) after 48 h using a microtiter plate reader. Then, the supernatant containing unattached cells was removed from each wells by aspiration, the attached biofilm mass was dissolved with 200 μl 1 N NaOH and the optical density was measured at 660 nm using the microtiter plate reader. Chlorhexidine (40 μg/ml) was used as a positive control.

[3] = tested on: bacteria from freshly-collected stimulated whole saliva; test: Mixed culture saliva biofilm on saliva-coated hydroxyapatite discs, timed exposure to actives
Experimental: Although useful to show the comparative effect of Magnolia Bark Extract on biofilm formation and MIC growth, the foregoing test procedure may not effectively mimic the in vivo exposure of a confectionary composition such as a pressed tablet to a developing plaque biofilm. In an in vivo situation, the active could be exposed to the plaque for a defined period of time at a set frequency (for example, for 5 minutes, three times a day). Therefore, a series of comparative experiments were conducted to mimic the in vivo use of potential active ingredients. To perform the tests the saliva compositions listed below in Tables 2 and 3 were prepared. A mixed culture system that utilizes the bacteria from freshly-collected stimulated whole saliva was used. Saliva cell pellets were used to inoculate saliva-coated hydroxyapatite (S-HA) discs. The discs were placed in 24-well cell culture plates and incubated for up to 3 days. Biofilms were exposed to actives on days 2 and 3 (starting at 18 hours), and quantified on day 4. The number of bacteria was determined by spectrophotometric absorbance or optical density (OD) at 600 nm. The five phases of the experiment were: pellicle formation; bacterial attachment; biofilm growth; exposure to actives; and bacterial enumeration. To form the pellicles, HA Discs were ultrasonically washed in deionized water and air-dried, then autoclaved. The discs were placed in a 24-well plate with 1 ml 50% sterile saliva (1 part sterile whole saliva: 1 part saliva buffer, filter sterilize after preparation) for 2 hours on slow agitation at room temperature. The saliva was suctioned and then the discs were transferred to fresh wells for bacterial attachment. To form the biofilms, the bacterial suspension was removed, and the discs were transferred to fresh wells. One ml of supplemented saliva medium was added and the plate was placed in the incubator for overnight incubation and for the duration of the experiment (up to 72 hours). A stock solution of 1% Magnolia Bark Extract in 60% ethanol was prepared. Magnolia Bark Extract samples were prepared having a concentration range of 125, 250, 500, and 1000 μg/ml (ppm) in a Phosphate-Buffered-Saline (PBS) solution, where the negative control was PBS and the positive control was CHX having a concentration of 0.12%. […] One ml quantities of active ingredients and controls were placed into fresh wells, and the discs were transferred to these wells for 5 minutes. The chlorhexidine control exposure was one minute, two times a day to mimic the standard mouth-rinse procedure. The exposure to active ingredient was carried out at 8:00 AM, 12:00 and 4:00 PM. After the timed exposure, the solution was removed and the discs washed twice with PBS and then transferred to fresh medium. For some experiments, the medium used during the day was TSB (Tryptic Soy Broth) with a 50 μl 40% sterile sucrose solution added to each well (to give a 2% sucrose solution). The medium was not replaced after the mid-day exposure. After overnight incubation (day 2), discs were exposed to controls and actives. On day 3 the biofilms were again exposed to tests and controls. On day 4 the discs were removed from the medium, the medium pH was measured to obtain an indication of metabolic activity, and the discs were placed into tubes with 2.5 ml PBS, vortexed for 20 sec, and then placed into the ultrasonic bath for another 20 sec. The suspension was transferred into cuvettes and the bacterial cell density determined by OD measurements at 600 nm. To evaluate the effect of Magnolia Bark Extract in combination with the surface active agent, sodium lauryl sulfate, five active ingredient solutions were prepared using the procedures described above. […] Also, the MBE solutions were prepared to have a concentration of 500 ppm. Sodium lauryl sulfate was added to two of the Magnolia Bark Extract solutions to obtain SLS concentrations of 0.05% and 0.1% in the Magnolia Bark Extract solutions. […]

Fusobacterium nucleatum [4] = test: Minimum-Bactericidal-Concentrations (MBC), plating on blood agar; settings: kills at least 99.9% of initial inoculum
S. mutans [5] = test: MIC for growth of S. mutans (comparative testing); settings: Streptococcus mutans, BHI with 0.5% sucrose, 48 h
Experimental: as §2

Streptococcus mutans [6] = test: Minimum-Inhibitory-Concentrations (MIC) study, 96-well microtiter plates; settings: 48 hours, 37° C., turbidity at 660 nm
Experimental: (§3) To evaluate the effectiveness of Magnolia Bark Extract, in vitro tests were conducted with three subgingival plaque bacteria associated with oral malodor. The Minimum-Inhibitory-Concentrations (MIC) study protocol is as follows. Chlorhexidine was used as a positive control and sterile water was used as a negative control. Menthol and Tween 80 was used as a solvent for Magnolia Bark Extract. Tween 80 is the common name for Polysorbate 80. Ninety-six-well microtiter plates were used for this study. Each well contained 5×10^5 colony forming units/ml of bacteria, serially diluted agents and bacterial growth medium. All bacterial cultures were incubated at 37° C. and stationary. Bacterial growth was estimated spectrophotometrically at 660 nm, after 48 hours.

Fusobacterium nucleatum [7] = test: as above; settings: 48 hours, 37° C., turbidity at 660 nm
Experimental: as §3

Porphyromonas gingivalis [8] = test: as above; settings: 48 hours, 37° C., turbidity at 660 nm
Experimental: as §3

S. mutans biofilm [9] = test: Effect on detachment of S. mutans biofilm; settings: pre-formed 48 h S. mutans biofilm, 30 min exposure
Experimental: Further to the results described above, the effect of Magnolia Bark Extract on biofilm formation and removal was compared with different herbal and natural ingredients. Comparative testing was performed using green tea extract, Oolong tea extract, Licorice, and Magnolia Bark Extract. The comparative testing included determining the solubility in water, ethanol, water:ethanol mixtures and other solvents (for example, Tween in water), MIC for growth of S. mutans, MIC for formation of S. mutans biofilm in 96-well plates, and the effect on detachment of S. mutans biofilm. To further evaluate the effect on S. mutans biofilm detachment, sterile 96-well microtiter plates were used where each well was inoculated with S. mutans (5×10^6 CFU/ml), growth medium (BHI supplemented with 0.5% sucrose), and incubated at 37° C. under aerobic condition for biofilm formation. After 48 hours, the non-attached supernatant was aspirated and serially diluted. […] After 30 min, the supernatant was aspirated from wells and the biofilm remaining after treatment was dissolved in 200 μl 1N NaOH, and quantitated at 660 nm using the plate reader. […] If detachment of the biofilm by action of the test compounds occurred, the spectrophotometric absorbance or optical density (OD) should show a decrease compared to the non-treated control.

Streptococcus mutans [10] = test: Minimum-Bactericidal-Concentrations (MBC), plating on blood agar; settings: kills at least 99.9% of initial inoculum
S. mutans [11] = test: MIC and fractional inhibitory index of combinations on S. mutans; settings: 24 hours at 37° C.
Experimental: as §1, with “hours. […] (1) where an FIC value of less than 1.0 is synergistic, an FIC between 1.0 and 2.0 is additive, and an FIC greater than 2.0 is antagonistic.” for “hours.”

[12] = CHX 0.12%, one minute, two times a day, day 4
[13] = repeat experiment with SLS, CHX 0.1% (1000 ppm)
[14] = repeat experiment with SLS, SLS 1000 ppm

Sodium Stearoyl Lactylate
MIC (ppm) (incubated saliva): >3000 ppm
germ-kill efficacy in words (incubated saliva): weak or non germ-kill actives

[H]/N=C(\N/C(=N/[H])NCCCCCCNC(=N)NC(=N)Nc1ccc(Cl)cc1)Nc1ccc(Cl)cc1 [CHX, chlorhexidine]
MBC (Porphyromonas gingivalis [1]): 1.25 µg/mL (≈ 2.47 µM)
MIC biofilm formation (S. mutans biofilm [2]): 2.5 µg/mL (≈ 4.95 µM)
% OD reduction at 600 nm compared to PBS control [3, 12]: 84%
pH of the medium (metabolic activity) [3, 12]: 8.8
% OD reduction at 600 nm [3, 13]: 94%
pH of the medium (metabolic activity) [3, 13]: 8.8
MBC (Fusobacterium nucleatum [4]): 1.25 µg/mL (≈ 2.47 µM)
MIC (S. mutans [5]): 2.5 µg/mL (≈ 4.95 µM)
MIC (Streptococcus mutans [6]): 1.25 µg/mL (≈ 2.47 µM)
MIC (Fusobacterium nucleatum [7]): 1.25 µg/mL (≈ 2.47 µM)
MIC (Porphyromonas gingivalis [8]): 1.25 µg/mL (≈ 2.47 µM)
MIC biofilm detachment (S. mutans biofilm [9]): >10 µg/mL
MBC (Streptococcus mutans [10]): 1.25 µg/mL (≈ 2.47 µM)

Sodium Brasslate
MIC (ppm) (incubated saliva): 500 ppm
germ-kill efficacy in words (incubated saliva): moderate germ-kill efficacy

Sucrose Stearate
MIC (ppm) (incubated saliva): >500 ppm
germ-kill efficacy in words (incubated saliva): weak or non germ-kill actives

Cocamidopropyl Betaine
germ-kill efficacy in words (incubated saliva): good germ-kill surface active agents

N=C(NCCCCCCNC(=N)NC(=N)Nc1ccc(Cl)cc1)NC(=N)Nc1ccc(Cl)cc1.O=C(O)[C@H](O)[C@@H](O)[C@H](O)[C@H](O)CO.O=C(O)[C@H](O)[C@@H](O)[C@H](O)[C@H](O)CO [Chlorhexidine gluconate, reference compound]
MIC (ppm) (incubated saliva): 2 ppm
MIC/ppm (S. mutans [11]): 2 ppm

CCCCCCCCCCCC(=O)OCCOCCOCCOCCOCCOCCOCCOCCOCCOCCOCCOCCOCCOCCOCCOCCOCCOCCOCCOCCOCC(OCCOCCOCCOCCOCCOCCOCCOCCOCCOCCOCCOCCOCCOCCOCCOCCOCCOCCOCCOCCO)C1OCC(OCCOCCOCCOCCOCCOCCOCCOCCOCCOCCOCCOCCOCCOCCOCCOCCOCCOCCOCCOCCO)C1OCCOCCOCCOCCOCCOCCOCCOCCOCCOCCOCCOCCOCCOCCOCCOCCOCCOCCOCCOCCO (stereo not shown) [Tween 20, Polysorbate 20]
MIC (incubated saliva): > 1000 µg/mL
germ-kill efficacy in words (incubated saliva): weak or non germ-kill actives

Sucrose Distearate
MIC (ppm) (incubated saliva): >500 ppm
germ-kill efficacy in words (incubated saliva): weak or non germ-kill actives

CCCCCCCCCCCCOS(=O)(=O)[O-].[Na+] [SLS, sodium lauryl sulfate]
MIC (incubated saliva): 50 µg/mL
germ-kill efficacy in words (incubated saliva): good germ-kill surface active agents
% OD reduction at 600 nm [3, 14]: 61%
pH of the medium (metabolic activity) [3, 14]: 5.7
MIC/ppm (S. mutans [11]): 100 ppm
